Each block holds one molecule with its values, some of them ahead of it.
Assays:
[1] = test system: tobacco budworm (Heliothis virescens); settings: 2500 ppm, eggs sprayed, 6 days
Experimental: 15 to 25 eggs were placed into microtiterplates filled with diet. The eggs were sprayed with 10 μl of the test solution, the plates were sealed with pierced foils and kept at 27-29° C. and 75-85% humidity under fluorescent light for 6 days. Mortality was assessed on the basis of the agility and of comparative feeding of the hatched larvae. Tests were replicated 2 times.

[2] = test system: Mediterranean fruitfly (Ceratitis capitata); settings: 2500 ppm, eggs sprayed, 6 days

SMILES: N#Cc1ccc(-c2ccc(S(=O)(=O)NCc3ccnnc3)cc2)cc1 [Example 11]
- mortality [1]: at least 75%

SMILES: O=S(=O)(NCc1ccnnc1)c1ccc(-c2ccc(Cl)cc2)nc1 [Example 60]
- mortality [2]: at least 75%

- melting point: 120 to 122 °C
SMILES: O=S(=O)(NCc1ccnnc1)c1cc(Br)cs1

Reference: patent publication US20100077512A1 (priority 2006, published 2010)
